These molecules were tested against T1, human recombinant PDE9 enzyme (Homo sapiens, UniProt O76083) (assay: Phosphodiesterase 9 (PDE9) inhibitory activity, Scintillation Proximity (SPA) assay). Conditions: human recombinant PDE9 from SF-9 cells; 50 nM [3H]cGMP; room temperature, 30 min; Examples 3-114; read-out: G5678A (U): IC50.
T1 construct: made in house; host or cells: SF-9 insect cells
Assay type: biochemical
Summary of the method: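 Scintillation proximity read-out of [3H]cGMP hydrolysis after 30 min at room temperature, with enzyme addition starting the reaction. The enzyme was human recombinant PDE9 expressed in SF-9 cells, titrated to keep substrate turnover at 20% or less. Compound wells held 2% DMSO final, and background was defined with excess PDE inhibitor.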

T1 sequence (O76083 whole entry): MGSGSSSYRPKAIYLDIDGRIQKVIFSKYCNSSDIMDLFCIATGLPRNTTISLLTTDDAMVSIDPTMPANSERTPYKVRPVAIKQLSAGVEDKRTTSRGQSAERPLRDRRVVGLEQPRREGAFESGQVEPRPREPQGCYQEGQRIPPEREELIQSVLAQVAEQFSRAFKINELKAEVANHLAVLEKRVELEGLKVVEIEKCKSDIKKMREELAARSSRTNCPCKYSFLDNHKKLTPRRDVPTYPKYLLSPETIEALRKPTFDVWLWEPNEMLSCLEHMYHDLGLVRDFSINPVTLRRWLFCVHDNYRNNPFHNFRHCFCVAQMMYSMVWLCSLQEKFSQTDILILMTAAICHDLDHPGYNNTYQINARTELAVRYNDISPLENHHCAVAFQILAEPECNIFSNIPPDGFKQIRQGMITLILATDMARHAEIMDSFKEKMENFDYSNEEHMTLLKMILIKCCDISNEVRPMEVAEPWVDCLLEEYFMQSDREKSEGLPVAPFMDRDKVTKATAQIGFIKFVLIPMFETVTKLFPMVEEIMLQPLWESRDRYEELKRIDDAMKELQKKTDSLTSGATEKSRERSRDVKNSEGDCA

SMILES | IC50 [nM]
Cc1nccc(CN2C[C@@H](C)[C@H](c3nc4c(cnn4C4CCCC4)c(=O)[nH]3)C2)n1 [Example 53, 1-cyclopentyl-6-{(3S,4S)-4-methyl-1-[(2-methylpyrimidin-4-yl)methyl]pyrrolidin-3-yl}-1,5-dihydro-4H-pyrazolo[3,4-d]pyrimidin-4-one] | 7.3
CC[C@@H]1CN(Cc2cnc(C)cn2)C[C@H]1c1nc2c(cnn2C2CCOCC2)c(=O)[nH]1 [Example 107, 6-{(3S,4S)-4-ethyl-1-[(5-methylpyrazin-2-yl)methyl]pyrrolidin-3-yl}-1-(tetrahydro-2H-pyran-4-yl)-1,5-dihydro-4H-pyrazolo[3,4-d]pyrimidin-4-one] | 4.33
COc1ccccc1CN1C[C@@H](C)[C@H](c2nc3c(cnn3C3CCOCC3)c(=O)[nH]2)C1 [Example 103, 6-[(3S,4S)-1-(2-methoxybenzyl)-4-methylpyrrolidin-3-yl]-1-(tetrahydro-2H-pyran-4-yl)-1,5-dihydro-4H-pyrazolo[3,4-d]pyrimidin-4-one] | 15.2
CC[C@@H]1CN(Cc2ccc3nccnc3c2)C[C@H]1c1nc2c(cnn2C(C)C)c(=O)[nH]1 (racemic) [Example 46, 6-[(3,4-trans)-4-ethyl-1-(quinoxalin-6-ylmethyl)pyrrolidin-3-yl]-1-isopropyl-1,5-dihydro-4H-pyrazolo[3,4-d]pyrimidin-4-one] | 8.53
C[C@@H]1CN(c2ncccn2)C[C@H]1c1nc2c(cnn2C2CCCC2)c(=O)[nH]1 (racemic) [Example 5, 1-cyclopentyl-6-[(3,4-trans)-4-methyl-1-pyrimidin-2-ylpyrrolidin-3-yl]-1,5-dihydro-4H-pyrazolo[3,4-d]pyrimidin-4-one] | 558
CC[C@@H]1CN(Cc2cnc3ccccc3c2)C[C@H]1c1nc2c(cnn2C(C)C)c(=O)[nH]1 (racemic) [Example 44, 6-[(3,4-trans)-4-ethyl-1-(quinolin-3-ylmethyl)pyrrolidin-3-yl]-1-isopropyl-1,5-dihydro-4-H-pyrazolo[3,4-d]pyrimidin-4-one] | 10.9
C[C@@H]1CN(C(=O)c2ccccc2)C[C@H]1c1nc2c(cnn2C2CCCC2)c(=O)[nH]1 (racemic) [Example 6, 6-[(3,4-trans)-1-benzoyl-4-methylpyrrolidin-3-yl]-1-cyclopentyl-1,5-dihydro-4H-pyrazolo[3,4-d]pyrimidin-4-one] | 57.1
O=c1[nH]c([C@@H]2CN(Cc3ccccc3)C[C@H]2C(F)(F)F)nc2c1cnn2C1CCCC1 (racemic) [Example 35, 6-[(3,4-trans)-1-benzyl-4-(trifluoromethyl)pyrrolidin-3-yl]-1-cyclopentyl-1,5-dihydro-4H-pyrazolo[3,4-d]pyrimidin-4-one] | 53.8
C[C@@H]1CN(Cc2ccc(C(F)(F)F)cc2)C[C@H]1c1nc2c(cnn2C2CCOCC2)c(=O)[nH]1 [Example 91, 6-{(3S,4S)-4-methyl-1-[4-(trifluoromethyl)benzyl]pyrrolidin-3-yl}-1-(tetrahydro-2H-pyran-4-yl)-1,5-dihydro-4H-pyrazolo[3,4-d]pyrimidin-4-one] | 6.69
Cc1ncc(CN2C[C@@H](C)[C@H](c3nc4c(cnn4C(C)C)c(=O)[nH]3)C2)cn1 [Example 41, 1-isopropyl-6-{(3S,4S)-4-methyl-1-[(2-methylpyrimidin-5-yl)methyl]pyrrolidin-3-yl}-1,5-dihydro-4H-pyrazolo[3,4-d]pyrimidin-4-one] | 63.8
C[C@@H]1CN(Cc2ccccc2)C[C@H]1c1nc2c(cnn2C2CCC(F)(F)CC2)c(=O)[nH]1 (racemic) [Example 63, 6-[(3,4-trans)-1-benzyl-4-methylpyrrolidin-3-yl]-1-(4,4-difluorocyclohexyl)-1,5-dihydro-4H-pyrazolo[3,4-d]pyrimidin-4-one] | 123

Same assay, conditions: human recombinant PDE9 from SF-9 cells; 50 nM [3H]cGMP; room temperature, 30 min; additional compounds Ex. 115-228; read-out: G5678A (U):IC50

SMILES | IC50 [nM]
C[C@@H]1CN(Cc2cccc(-n3cccn3)n2)C[C@H]1c1nc2c(cnn2C2CCCC2)c(=O)[nH]1 (racemic) [Example 135, 1-cyclopentyl-6-[(3,4-trans)-4-methyl-1-{[6-(1H-pyrazol-1-yl)pyridin-2-yl]methyl}pyrrolidin-3-yl]-1,5-dihydro-4H-pyrazolo[3,4-d]pyrimidin-4-one] | 91.6
Cc1cc(CN2C[C@@H](C)[C@H](c3nc4c(cnn4C4CCCC4)c(=O)[nH]3)C2)ccn1 (racemic) [Example 116, 1-cyclopentyl-6-{(3,4-trans)-4-methyl-1-[(2-methylpyridin-4-yl)methyl]pyrrolidin-3-yl}-1,5-dihydro-4H-pyrazolo[3,4-d]pyrimidin-4-one] | 34
Cc1cc(C)cc(CN2C[C@@H](C)[C@H](c3nc4c(cnn4C4CCCC4)c(=O)[nH]3)C2)c1 (racemic) [Example 197, 1-cyclopentyl-6-[(3,4-trans)-1-(3,5-dimethylbenzyl)-4-methylpyrrolidin-3-yl]-1,5-dihydro-4H-pyrazolo[3,4-d]pyrimidin-4-one] | 53.5
COc1ccncc1CN1C[C@@H](C)[C@H](c2nc3c(cnn3C3CCCC3)c(=O)[nH]2)C1 (racemic) [Example 171, 1-cyclopentyl-6-{(3,4-trans)-1-[(4-methoxypyridin-3-yl)methyl]-4-methylpyrrolidin-3-yl}-1,5-dihydro-4H-pyrazolo[3,4-d]pyrimidin-4-one] | 51.3
C[C@@H]1CN(Cc2cccc3ccccc23)C[C@H]1c1nc2c(cnn2C2CCCC2)c(=O)[nH]1 (racemic) [Example 142, 1-cyclopentyl-6-[(3,4-trans)-4-methyl-1-(1-naphthylmethyl)pyrrolidin-3-yl]-1,5-dihydro-4H-pyrazolo[3,4-d]pyrimidin-4-one] | 47.5
CC(C)c1csc(CN2C[C@@H](C)[C@H](c3nc4c(cnn4C4CCCC4)c(=O)[nH]3)C2)n1 (racemic) [Example 132, 1-cyclopentyl-6-{(3,4-trans)-1-[(4-isopropyl-1,3-thiazol-2-yl)methyl]-4-methylpyrrolidin-3-yl}-1,5-dihydro-4H-pyrazolo[3,4-d]pyrimidin-4-one] | 37.5
C[C@@H]1CN(Cc2ccc(-n3cncn3)cc2)C[C@H]1c1nc2c(cnn2C2CCCC2)c(=O)[nH]1 (racemic) [Example 140, 1-cyclopentyl-6-{(3,4-trans)-4-methyl-1-[4-(1H-1,2,4-triazol-1-yl)benzyl]pyrrolidin-3-yl}-1,5-dihydro-4H-pyrazolo[3,4-d]pyrimidin-4-one] | 26.8
Cc1cc(CN2C[C@@H](C)[C@H](c3nc4c(cnn4C4CCCC4)c(=O)[nH]3)C2)ccc1F (racemic) [Example 184, 1-cyclopentyl-6-[(3,4-trans)-1-(4-fluoro-3-methylbenzyl)-4-methylpyrrolidin-3-yl]-1,5-dihydro-4H-pyrazolo[3,4-d]pyrimidin-4-one] | 90
CCOc1cccc(CN2C[C@@H](C)[C@H](c3nc4c(cnn4C4CCCC4)c(=O)[nH]3)C2)c1 (racemic) [Example 153, 1-cyclopentyl-6-[(3,4-trans)-1-(3-ethoxybenzyl)-4-methylpyrrolidin-3-yl]-1,5-dihydro-4H-pyrazolo[3,4-d]pyrimidin-4-one] | 54.4
C[C@@H]1CN(Cc2ccc(CN3CCOCC3)cc2)C[C@H]1c1nc2c(cnn2C2CCCC2)c(=O)[nH]1 (racemic) [Example 207, 1-cyclopentyl-6-{(3,4-trans)-4-methyl-1-[4-(morpholin-4-ylmethyl)benzyl]pyrrolidin-3-yl}-1,5-dihydro-4H-pyrazolo[3,4-d]pyrimidin-4-one] | 46.2

Source: patent publication US7964607B2, “Pyrazolo[3,4-d]pyrimidine compounds” (Pfizer Inc., priority 2007, dated 2011)
